This note sets out measurements from publication PMC8219378, “A putative structural mechanism underlying the antithetic effect of homologous RND1 and RhoD GTPases in mammalian plexin regulation” (eLife, 2021).

The target of test [1] is T1, RhoD/plexin B2-RBD complex (Homo sapiens, UniProt O00212, Q75L).
T1 construct: human RhoD 8-194 Q75L (catalytically dead), His6-tag removed by 3C protease, E. coli BL21(DE3); mouse plexin B2 intracellular region 1274-1842, tag removed, E. coli ArcticExpress(DE3), degraded in drops to RBD (1463-1565, domain-swapped dimer); with Plexin-B2 (Mus musculus)
T1 sequence (O00212 8-194 Q75L): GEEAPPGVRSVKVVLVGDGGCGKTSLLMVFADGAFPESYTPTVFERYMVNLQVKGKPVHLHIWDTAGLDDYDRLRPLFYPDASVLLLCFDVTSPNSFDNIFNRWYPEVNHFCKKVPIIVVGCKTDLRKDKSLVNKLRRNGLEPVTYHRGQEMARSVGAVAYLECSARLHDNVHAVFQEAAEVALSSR
T1 sequence (B2RXS4 1463-1565 partner): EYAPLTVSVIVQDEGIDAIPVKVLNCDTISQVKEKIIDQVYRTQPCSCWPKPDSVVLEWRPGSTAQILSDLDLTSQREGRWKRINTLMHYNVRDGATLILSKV
The experiment in a line: X-ray crystal structure, […] Å. The conditions noted are these: Mg2+; GTP-binding site of RhoD; RhoD loaded by EDTA exchange; complex with plexin B2 RBD.

In test [2] the target is T2, human RhoD (residues 8-194) with the Q75L mutation, bound to GMP-PNP (human, UniProt O00212 8-194, Q75L).
T2 construct: Loaded with the GTP analogue GMP-PNP and Mg2+ before crystallization; His6 tag removed with human rhinovirus 3C protease; also called GMP-PNP-loaded RhoD; source: E. coli BL21 (DE3), purified (HisTrap, anion exchange, Superdex 75); not shown: His6, N-terminal, cleaved
T2 sequence (looked up): T1 sequence (O00212 8-194 Q75L)
Briefly: crystal structure; plexin B2 (1274-1842) and GMP-PNP-loaded RhoD mixed at 1:1 molar ratio, 6 mg/mL; crystals grown for over a month at 20 C in 0.2 M MgCl2, 22% PEG3350, 100 mM MIB pH 6.8; molecular replacement, 3.1 A; two RhoD and two RBD in the asymmetric unit. The following applies: both partners purified.

In the case of `Nc1nc2c(ncn2[C@@H]2O[C@H](COP(=O)(O)OP(=O)(O)NP(=O)(O)O)[C@@H](O)[C@H]2O)c(=O)[nH]1` [GMP-PNP, guanosine 5′-[β,γ-imido]triphosphate], the “X-ray crystal structure, 3.1 Å” value in test [1] is “complex of mouse plexin B2 and human RhoD bound to the GTP analogue GMP-PNP”.

B1: mouse plexin B2 RBD (Rho-GTPase-binding domain), as found in the crystal (domain or fragment, UniProt B2RXS4 1463-1565, looked up)
chain: T1 sequence (B2RXS4 1463-1565 partner)
notes: Plexin B2, mouse; Expressed as the intracellular region without the juxtamembrane region (residues 1274-1842); it degraded during crystallization and the crystal held only the RBD, built as residues 1463-1509 and 1510-1565; The range is that of the residues modelled in the structure; In the crystal two RBD chains form a domain-swapped dimer (swap between residues 1509 and 1510), which the authors …
For the molecule B1, the binding result in test [2] was “binds”.
